Tested on: INS1 cells expressing mCherry-GFP
Test: mCherry-GFP-Fis1101-152 determination of mitophagy
Assay type: cell-based
Source text: To corroborate the increase in mitochondrial clearance, we determined mitophagy by testing the compounds in INS1 cells expressing mCherry-GFP, a mitochondrial probe that emits green and red fluorescence under physiologic pH but red fluorescence only under acidic pH (such as that occurring in autolysosomes) and is therefore used for quantifying mitophagy. Unlike MitoTimer, which captures the accumulating effect of mitochondrial turnover, mCherry-GFP captures mitophagy at the time that it occurs. Since the timing of the induction of mitophagy by the hits was not known, we did a time-lapse. The cells were treated with the hits for 2, 8 and 18 hours. While after 2 hours and 18 hours, the molecules tended to increase the number of mitochondria inside autophagosomes (data not shown), only after 8 hours was this increase significant.
mCherry-GFP-Fis1101-152 determination of mitophagy. INS1 cells were seeded into 4 compartment […]™ glass bottom cell culture dishes at a density of 2*10^4 cells/compartment. After 48 hours cells were transduced with an adenoviral construct encoding the fluorescent mitophagy reporter mCherry-GFP-Fis1101-152 for 24 hours. A media change containing the indicated treatment concentration or 0.1% DMSO as vehicle control was performed 8 hours before the imaging session. Imaging was performed using a 63× Plan Neofluar objective and the Airyscan module of a Zeiss LSM880 confocal microscope. 25 visual fields containing 59-85 cells in total were imaged per condition. The experiment was repeated three times independently. Image analysis was performed with FIJI ImageJ 1.51p and CellProfiler 2.2.0 rev ac0529e. Briefly, individual cells were cropped and background was subtracted using a median filter assisted processing method (Dunn, K. W., Kamocka, M. M. McDonald, J. H. (2011) A practical guide to evaluating colocalization in biological microscopy. Am. J. Physiol. Cell Physiol. 300, C723-C742). Ratios of red/green fluorescence channels were computed and mitophagy positive structures were recognized based on a lower ratio cut-off of 2.5 of red over green. Mitophagy events per cell were determined by the following formula. […]
Data were normalized to DMSO controls to account for day to day variation. […] Significant treatment differences were determined using One-way ANOVA and Tukey post-hoc analysis. […]
The impact of the hits on mitochondrial turnover was further confirmed by a mitophagy-specific assay, a protein with a tandem mCherry-GFP tag attached to the localization signal of the protein FIS at the OMM. […] When mitochondria enter the lysosomes, the GFP fluorescence is quenched, the remaining red fluorescence is seen as red puncta, representing the undergoing mitophagy events.

With `CC(=O)N/C(=C\c1sc2ccccc2c1C)C(=O)O` [SPB08007] the “time of peak formation of acidic puncta” value (25 uM) was 8 h, the “number of acidic puncta (mitophagy events per cell)” value (25 uM, 8 h, vs DMSO) was “significantly increased” and the “number of mitophagy events at 18 h” value (25 uM, 18 h) was “returned to control levels”. The “number of red fluorescent dots in acidic vesicles (mitophagy)” value (8 hours) was “increased”.
